Laboratory results reported in US20230013669A1, “Antibacterial Treatment Using a Cannabinoid and an Active Agent” (priority 2019, published 2023).
≈ marks a conversion by molar mass, not a printed value. Where “and” joins values, the source holds several entries; their conditions need not be identical. Equal entries are not always repeated. Structures can show the parent of a compound that is named as a salt. Where two headings read alike, the source gives them in different places. Residues, ends and D or L forms follow the SMILES beside them.

Columns and labels:
Format in all cases: cell-based
[1] = system: Acinetobacter baumannii ATCC 19606 (GN_034); assay: MIC micro-broth dilution assay (Example 1 method); conditions: for MIC: Acinetobacter baumannii
Protocol: (§6) The plates were covered and incubated at 37° C. for 18-20 h.
(§7) Optical density was read at 600 nm (OD600) using Tecan M1000 Pro Spectrophotometer. […] Analysis was performed using Microsoft Excel.

[2] = system: Escherichia coli ATCC 25922 (GN_001); assay: MIC micro-broth dilution assay (Example 1 method); conditions: for MIC: Escherichia coli
Protocol: as §6, §7

[3] = system: Acinetobacter baumannii AL1851, IpxA mutant; Lipid A deficient (GN_237); assay: MIC broth microdilution, 96-well, visual reading (Example 11); conditions: for MIC: Acinetobacter baumannii, read-out: MIC (Test results), Example 11 Table 41; for MIC / MIC (Test results): GN_237, n=4 replicates; for MIC (Test results): Example 11 Table 41
Protocol: (§1) The experiment was performed to investigate the antimicrobial activity of cannabidiol (CBD) against an LPS deficient strain (GN_237 Acinetobacter baumannii, IpxA mutant; Lipid A deficient; obtained by colistin selection from base strain ATCC 19606) and its parent strain (GN_034, Acinetobacter baumannii, ATCC 19606).
(§2) All plates had flat bottom wells and were covered with low-evaporation lids.
(§3) Two biological replicates ×2 technical replicates were conducted on separate days (final n=4). Inhibition of bacterial growth was determined visually, where the MIC was recorded as the lowest compound concentration with no visible growth.

[4] = system: Pseudomonas aeruginosa ATCC 27853 (GN_042); assay: MIC micro-broth dilution assay (Example 1 method); conditions: for MIC: Pseudomonas aeruginosa
Protocol: as §6, §7

[5] = system: Klebsiella pneumoniae ATCC 13883 (GN_003 / GN_004); assay: MIC micro-broth dilution assay (Example 1 method); conditions: for MIC: Klebsiella pneumoniae
Protocol: as §6, §7

[6] = system: Klebsiella pneumoniae ATCC 700603; assay: MIC micro-broth dilution assay (Example 1 method); conditions: for MIC: Klebsiella pneumoniae
Protocol: Methods were as for Example 1. Cannabidiol was tested in combination with cefotetan.
Methods were as for Example 1. Cannabidiol was tested in combination with aztreonam.
Methods were as for Example 1. Cannabidiol was tested in combination with cefepime.
Methods were as for Example 1. Cannabidiol was tested in combination with octapeptin C4.
Methods were as for Example 1. Cannabidiol was tested in combination with Spero SPR206. The experiments were carried out three times.

[7] = system: Acinetobacter baumannii ATCC 19606 Type Strain (GN_034); assay: MIC broth microdilution, 96-well, visual reading (Example 11); conditions: GN_034, n=4 replicates; for MIC: Acinetobacter baumannii, ATCC19606, read-out: MIC (Test results), Example 11 Table 41; for MIC (Test results): Example 11 Table 41
Protocol: as §1, §2, §3

[8] = system: Pseudomonas aeruginosa ATCC 27853; assay: microbe, parasite or virus in culture
Protocol: (§4) The inoculum was then diluted in CaMHB to give a mid-log phase cultures and 40 μL was added to each well from column 1 to column 18, and column 23. 45 μL of the inoculum was added to each well from column 19 to column 22 to give the final cell density of 5×10^5 CFU/mL. The plates were incubated at 37° C. for 18-20h.
(§5) Optical density was read at 600 nm (OD600) using Gen5 Spectrophotometer. […] Analysis was performed using Microsoft Excel.

[9] = system: Klebsiella pneumoniae ATCC 700603; assay: microbe, parasite or virus in culture
Protocol: as §4, §5

[10] = system: Escherichia coli ATCC 25922; assay: microbe, parasite or virus in culture
Protocol: as §4, §5

[11] = system: Acinetobacter baumannii ATCC 19606; assay: microbe, parasite or virus in culture
Protocol: as §4, §5

[12] = Acinetobacter baumannii ATCC 19606
[13] = Pseudomonas aeruginosa ATCC 27853
[14] = Klebsiella pneumoniae ATCC 700603
[15] = ATCC19606, read-out: Minimum Inhibitory Concentration (MIC), Example 5 Table 19, GN_034, compound alone, replicates
[16] = Example 5 Table 19, GN_034, compound alone, replicates
[17] = Example 10 Table 38, compound alone, replicates

Colistin
MIC of Colistin [1, 12]: 1.00 µg/mL and 1 µg/mL
Minimum Inhibitory Concentration (MIC) ([1]; Example 3 Table 11, GN_034, compound alone, replicates): 1 µg/mL
MIC of Colistin ([1]; Example 3 Table 12, GN_034): 1 µg/mL
MIC of Colistin ([2]; Escherichia coli ATCC 25922): 0.50 µg/mL and 0.5 µg/mL
Minimum Inhibitory Concentration (MIC) ([2]; Example 3 Table 11, GN_001, compound alone, replicates, listed as MCC_000094): 0.25 μg/mL and 0.5 μg/mL and 2 μg/mL (2×)
MIC of Colistin ([2]; Example 3 Table 12, GN_001): 0.5 µg/mL
activity alone ([3]; Example 11, Lipid A deficient GN_237): resistant
MIC of Colistin [4, 13]: 1.00 µg/mL and 1 µg/mL
MIC of Colistin [5, 14]: 0.50 µg/mL and 0.5 µg/mL

CC(C)(O/N=C(\C(=O)N[C@@H]1C(=O)N2C(C(=O)[O-])=C(C[n+]3ccccc3)CS[C@H]12)c1csc(N)n1)C(=O)O [Ceftazidime]
MIC of Ceftazidime [1, 12]: 4 µg/mL
MIC ([1]; ATCC19606, read-out: MIC of Ceftazidime, Acinetobacter baumannii ATCC 19606): 4 µg/mL
MIC of Ceftazidime ([2]; Escherichia coli ATCC 25922): 0.062 µg/mL
MIC ([2]; ATCC25922, read-out: MIC of Ceftazidime, Escherichia coli ATCC 25922): 0.06 µg/mL
MIC of Ceftazidime [4, 13]: 4 µg/mL
MIC ([4]; ATCC27853, read-out: MIC of Ceftazidime): 4 µg/mL
MIC of Ceftazidime [5, 14]: 128 µg/mL
MIC ([5]; ATCC 13883 / ATCC 700603, read-out: MIC of Ceftazidime, Klebsiella pneumoniae ATCC 700603): 64 µg/mL

CO/N=C(\C(=O)N[C@@H]1C(=O)N2C(C(=O)O)=C(COC(N)=O)CS[C@H]12)c1ccco1 [Cefuroxime]
MIC ([1]; ATCC19606, read-out: MIC of Cefuroxime, Acinetobacter baumannii ATCC 19606): 64 µg/mL
MIC ([1]; ATCC19606, read-out: MIC of cefuroxime, Example 2 Table 8, GN_034): 64 µg/mL
MIC ([1]; ATCC19606, read-out: Minimum Inhibitory Concentration (MIC), Example 2 Table 7, GN_034, compound alone, replicates): > 32 µg/mL
Minimum Inhibitory Concentration (MIC) ([1]; Example 2 Table 7, GN_034, compound alone, replicates, listed as MCC_009386): >32 μg/mL and 64 μg/mL (2×)
MIC ([2]; ATCC25922, read-out: MIC of Cefuroxime, Escherichia coli ATCC 25922): 2 µg/mL
MIC ([4]; ATCC27853, read-out: MIC of Cefuroxime): 256 µg/mL
MIC ([5]; ATCC 13883 / ATCC 700603, read-out: MIC of Cefuroxime, Klebsiella pneumoniae ATCC 700603): 16 µg/mL

CO/N=C(\C(=O)N[C@@H]1C(=O)N2C(C(=O)[O-])=C(C[N+]3(C)CCCC3)CS[C@H]12)c1csc(N)n1 [Cefepime]
MIC ([1]; ATCC19606, read-out: MIC of Cefepime, Cefepime alone): 16 µg/mL
MIC ([1]; ATCC19606, read-out: MIC of Cefepime, Example 5 Table 20, GN_034): 16 µg/mL
MIC [1, 15]: 16 µg/mL (≈ 33.3 µM)
Minimum Inhibitory Concentration (MIC) [1, 16]: 16 µg/mL
MIC of Cefepime ([2]; Cefepime alone): 0.062 µg/mL
MIC ([2]; ATCC25922, read-out: MIC of Cefepime, Cefepime alone): 0.031 µg/mL
MIC ([4]; ATCC27853, read-out: MIC of Cefepime): 256 µg/mL
MIC ([6]; ATCC700603, read-out: MIC of Cefepime): 1 µg/mL

CCC[C@@H]1C[C@@H](C(=O)N[C@@H]([C@H]2O[C@H](SC)[C@H](O)[C@@H](O)[C@H]2O)[C@H](C)Cl)N(C)C1 [Clindamycin hydrochloride monohydrate]
MIC [3]: 4 µg/mL
MIC (Test results) [3]: 4 μg/mL and 8 μg/mL (2×)
MIC [7]: 128 µg/mL
MIC (Test results) [7]: 128 μg/mL (2×) and >128 μg/mL

C/C(=C\C(=O)OCCCCCCCCC(=O)O)C[C@@H]1OC[C@H](C[C@@H]2O[C@H]2[C@@H](C)[C@H](C)O)[C@@H](O)[C@H]1O [Mupirocin]
MIC [3]: 32 µg/mL (≈ 63.9 µM)
MIC (Test results) [3]: 16 µg/mL (≈ 32 µM)
MIC [7]: 128 µg/mL (≈ 256 µM)
MIC (Test results) [7]: 128 µg/mL (≈ 256 µM)

Colistin Sulfate
MIC (Test results) [3]: >128 μg/mL (2×) and 128 μg/mL (2×)
MIC (Test results) [7]: 1 µg/mL

Gentamycin
MIC (Test results) [3]: 1 μg/mL (2×) and 2 μg/mL and 0.5 μg/mL
MIC (Test results) [7]: 32 μg/mL (2×) and 64 μg/mL (2×)

C[C@H]1[C@H](NC(=O)/C(=N\OC(C)(C)C(=O)O)c2csc(N)n2)C(=O)N1S(=O)(=O)O [Aztreonam]
MIC ([1]; ATCC19606, read-out: MIC of Aztreonam, Aztreonam alone): 32 µg/mL
MIC ([1]; ATCC19606, read-out: MIC of aztreonam, Example 5 Table 20, GN_034): 32 µg/mL
MIC [1, 15]: 16 µg/mL (≈ 36.7 µM)
Minimum Inhibitory Concentration (MIC) [1, 16]: 16 µg/mL
MIC ([4]; ATCC27853, read-out: MIC of Aztreonam): 4 µg/mL
MIC ([6]; ATCC700603, read-out: MIC of Aztreonam, Aztreonam alone): 64 µg/mL

CC1(C)S[C@@H]2[C@H](NC(=O)[C@H](C(=O)O)c3ccsc3)C(=O)N2[C@H]1C(=O)O [Ticarcillin]
MIC ([1]; ATCC19606, read-out: MIC of Ticarcillin): 4 µg/mL
MIC ([2]; ATCC25922, read-out: MIC of Ticarcillin): 8 µg/mL
MIC of Ticarcillin [4, 13]: 16 µg/mL
MIC ([4]; ATCC27853, read-out: MIC of Ticarcillin, Pseudomonas aeruginosa ATCC 27853): 32 µg/mL
MIC ([5]; ATCC 13883 / ATCC 700603, read-out: MIC of Ticarcillin): 128 µg/mL

CO[C@@]1(NC(=O)C2SC(=C(C(N)=O)C(=O)O)S2)C(=O)N2C(C(=O)O)=C(CSc3nnnn3C)CS[C@@H]21 (stereo partly drawn) [Cefotetan]
MIC ([1]; ATCC19606, read-out: MIC of Cefotetan, Acinetobacter baumannii ATCC 19606): 256 µg/mL
MIC ([1]; ATCC19606, read-out: MIC of Cefotetan, Cefotetan alone): 256 µg/mL
MIC ([2]; ATCC25922, read-out: MIC of Cefotetan, Cefotetan alone): 0.25 µg/mL
MIC ([2]; ATCC25922, read-out: MIC of Cefotetan, Escherichia coli ATCC 25922): 0.25 µg/mL
MIC of Cefotetan ([4]; Cefotetan alone): 256 µg/mL
MIC ([4]; ATCC27853, read-out: MIC of Cefotetan): 256 µg/mL
MIC of Cefotetan ([6]; Cefotetan alone): 1 µg/mL
MIC ([6]; ATCC700603, read-out: MIC of Cefotetan, Cefotetan alone): 0.5 µg/mL

CC(C)C[C@@H]1NC(=O)[C@@H](Cc2ccccc2)NC(=O)[C@H](CCN)NC(=O)[C@@H](NC(=O)[C@H](CCN)NC(=O)[C@@H](N)[C@@H](C)O)CCNC(=O)[C@H]([C@@H](C)O)NC(=O)[C@H](CCN)NC(=O)[C@H](CCN)NC1=O [PMBN] (HELM PEPTIDE1{T.[Dab].[Dab].[Dab].[dF].L.[Dab].[Dab].T}$PEPTIDE1,PEPTIDE1,3:R3-9:R2$$$V2.0; N-terminus assumed; bridges inferred)
antimicrobial activity alone ([8]; Example 10): poor antimicrobial activity
MIC [8, 17]: >32 µg/mL
MIC of PMBN ([8]; Example 10 Table 39): >32 µg/mL
antimicrobial activity alone ([9]; Example 10): poor antimicrobial activity
MIC [9, 17]: >32 µg/mL
MIC of PMBN ([9]; Example 10 Table 39): >32 µg/mL
antimicrobial activity alone ([10]; Example 10): poor antimicrobial activity
MIC [10, 17]: >32 µg/mL
MIC of PMBN ([10]; Example 10 Table 39): >32 µg/mL
antimicrobial activity alone ([11]; Example 10): poor antimicrobial activity
MIC [11, 17]: >32 µg/mL
MIC of PMBN ([11]; Example 10 Table 39): >32 µg/mL

CC(=O)N[C@H](C(=O)N[C@H](CO)C(=O)N[C@H]1CCNC(=O)[C@H]([C@@H](C)O)NC(=O)[C@H](CCN)NC(=O)[C@H](CCN)NC(=O)[C@H](CC(C)C)NC(=O)[C@@H](Cc2ccccc2)NC(=O)[C@H](CCN)NC1=O)[C@@H](C)O [Spero Potentiator SPR741] (HELM PEPTIDE1{[ac].T.[dS].[Dab].[Dab].[dF].L.[Dab].[Dab].T}$PEPTIDE1,PEPTIDE1,4:R3-10:R2$$$V2.0)
MIC of Spero Potentiator SPR741 ([1]; Acinetobacter baumannii ATCC 19606, alone): >128 µg/mL and >64 µg/mL
MIC of Spero Potentiator SPR741 ([2]; Escherichia coli ATCC 25922, alone): 64 µg/mL and 128 µg/mL
MIC of Spero Potentiator SPR741 ([4]; Pseudomonas aeruginosa ATCC 27853, alone): 64.00 µg/mL and 64 µg/mL
MIC of Spero Potentiator SPR741 ([5]; Klebsiella pneumoniae ATCC 700603 (so in the source), alone): >128 µg/mL and >64 µg/mL

Teicoplanin
MIC (Test results) [3]: 0.25 μg/mL (2×) and 0.5 μg/mL
MIC (Test results) [7]: >128 µg/mL
